Patent publication US11203574B2 (BioCryst Pharmaceuticals, Inc., priority 2014, dated 2021)

What follows are compounds tested against human plasma kallikrein (Homo sapiens (Human), UniProt P03952) (assay: Plasma kallikrein activity assay (chromogenic substrate S2302)). Settings: 2 nM kallikrein, 80 μM S2302, 30° C., pH 7.8; Ki by Cheng-Prusoff equation; values given as ranges; read-out: Ki.
human plasma kallikrein, sequence (P03952 whole entry, looked up): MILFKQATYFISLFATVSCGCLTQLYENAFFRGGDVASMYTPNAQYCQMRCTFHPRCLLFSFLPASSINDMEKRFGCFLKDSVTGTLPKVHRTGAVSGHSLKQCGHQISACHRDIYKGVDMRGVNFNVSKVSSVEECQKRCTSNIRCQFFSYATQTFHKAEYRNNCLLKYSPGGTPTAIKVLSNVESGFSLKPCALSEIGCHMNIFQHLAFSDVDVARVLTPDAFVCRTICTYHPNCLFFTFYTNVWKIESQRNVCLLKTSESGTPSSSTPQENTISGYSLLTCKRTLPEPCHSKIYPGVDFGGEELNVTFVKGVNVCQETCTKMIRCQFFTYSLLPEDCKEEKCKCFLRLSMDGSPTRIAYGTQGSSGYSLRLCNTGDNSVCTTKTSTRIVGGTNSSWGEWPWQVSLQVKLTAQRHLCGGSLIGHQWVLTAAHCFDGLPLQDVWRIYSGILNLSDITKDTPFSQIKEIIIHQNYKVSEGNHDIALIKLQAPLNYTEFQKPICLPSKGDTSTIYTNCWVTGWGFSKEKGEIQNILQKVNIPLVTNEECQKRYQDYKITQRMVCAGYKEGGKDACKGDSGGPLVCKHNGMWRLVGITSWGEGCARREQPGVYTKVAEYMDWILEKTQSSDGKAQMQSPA
human plasma kallikrein, sequence (P03952 whole entry partner, looked up): as the sequence (P03952 whole entry, looked up) above
Assay type: biochemical
For `CC(C)CC(=O)NC(CCC1CC1)(c1cccnc1)c1ccc(F)c(NC(=O)c2cc(C(F)(F)F)nn2-c2cccc(CN)c2)c1` (single isomer, unassigned; (-)) [244k, (−)-1-(3-(aminomethyl)phenyl)-N-(5-(3-cyclopropyl-1-(3-methylbutanamido)-1-(pyridin-3-yl)propyl)-2-fluorophenyl)-3-(trifluoromethyl)-1H-pyrazole-5-carboxamide], the Ki was 0.1 to 50 nM.
`CS(=O)(=O)NC(CCC1CC1)(c1ccncc1)c1ccc(F)c(NC(=O)c2cc(C(F)(F)F)nn2-c2ccc3ccnc(N)c3c2)c1` (single isomer, unassigned; (-)) [262f, (−)-1-(1-aminoisoquinolin-7-yl)-N-(5-(3-cyclopropyl-1-(methylsulfonamido)-1-(pyridin-4-yl)propyl)-2-fluorophenyl)-3-(trifluoromethyl)-1H-pyrazole-5-carboxamide] was tested, and the Ki was 0.1 to 50 nM.
With `NCc1cccc(-n2nc(C(F)(F)F)cc2C(=O)Nc2cc(C(c3ccccc3)N(CC3CC3)CC3CC3)ccc2F)c1` (single isomer, unassigned; (-)) [206d, (−)-1-(3-(aminomethyl)phenyl)-N-(5-((bis(cyclopropylmethyl)amino)(phenyl)methyl)-2-fluorophenyl)-3-(trifluoromethyl)-1H pyrazole-5-carboxamide] the Ki was 0.1 to 50 nM.
For `Cc1cc(C(N)(CCC2CC2)c2ccc(F)c(NC(=O)c3cc(C(F)(F)F)nn3-c3cccc(CN)c3)c2)ccn1` (single isomer, unassigned; (+)) [266j, (+)-N-(5-(1-amino-3-cyclopropyl-1-(2-methylpyridin-4-yl)propyl)-2-fluorophenyl)-1-(3-(aminomethyl)phenyl)-3-(trifluoromethyl)-1H-pyrazole-5-carboxamide], the Ki was 0.1 to 50 nM.
Work on `CS(=O)(=O)c1ccccc1C(NCC1CC1)c1cccc(NC(=O)c2cc(C(F)(F)F)nn2-c2cccc(CN)c2)c1` (stereo not shown) [121f, 1-(3-(aminomethyl)phenyl)-N-(3-((cyclopropylmethylamino)(2-(methylsulfonyl)phenyl)methyl)phenyl)-3-(trifluoromethyl)-1H-pyrazole-5-carboxamide] yielded a Ki of 0.1 to 50 nM.
Compound `N#Cc1cc(C(=O)Nc2cc(C(NCC3CC3)c3ccccc3)ccc2F)n(-c2cccc(CN)c2)n1` (single isomer, unassigned; (-)) [240b, (−)-1-(3-(aminomethyl)phenyl)-3-cyano-N-(5-((cyclopropylmethylamino)(phenyl)methyl)-2-fluorophenyl)-1H-pyrazole-5-carboxamide] has a Ki of 0.1 to 50 nM.
In the case of `N#Cc1cccc(C(N)(CCC2CC2)c2ccc(F)c(NC(=O)c3cc(C(F)(F)F)nn3-c3ccc4ccnc(N)c4c3)c2)c1` (single isomer, unassigned; (+)) [256a, (+)-N-(5-(1-amino-1-(3-cyanophenyl)-3-cyclopropylpropyl)-2-fluorophenyl)-1-(1-aminoisoquinolin-7-yl)-3-(trifluoromethyl)-1H-pyrazole-5-carboxamide], the Ki is reported as 0.1 to 50 nM.
`NCc1cccc(-n2nc(C(F)(F)F)cc2C(=O)Nc2cccc(C(OCC3CC3)c3ccccc3)c2)c1` (single isomer, unassigned; (+)) [166e, (+)-1-(3-(aminomethyl)phenyl)-N-(3-((cyclopropylmethoxy)(phenyl)methyl)phenyl)-3-(trifluoromethyl)-1H-pyrazole-5-carboxamide] showed a Ki of 0.1 to 50 nM.
`NCc1cccc(-n2nc(C(F)(F)F)cc2C(=O)Nc2cccc(C(NCC3CC3)c3cccc4c3OCO4)c2)c1` (stereo not shown) [192f, 1-(3-(aminomethyl)phenyl)-N-(3-(benzo[d][1,3]dioxol-4-yl(cyclopropylmethylamino)methyl)phenyl)-3-(trifluoromethyl)-1H-pyrazole-5-carboxamide] was tested, and the Ki was 0.1 to 50 nM.
`NCc1cccc(-n2nc(C(F)(F)F)cc2C(=O)Nc2cccc(C(CCC3CC3)c3cc[nH]c3)c2)c1` (stereo not shown) [103b, 1-(3-(aminomethyl)phenyl)-N-(3-(3-cyclopropyl-1-(1H-pyrrol-3-yl)propyl)phenyl)-3-(trifluoromethyl)-1H-pyrazole-5-carboxamide] was tested, and the Ki was 0.1 to 50 nM.
